According to patent publication USRE48842E1, “Pyrimido-pyrrolo-oxazine-dione compound inhibitors of the cystic fibrosis transmembrane conductance regulator protein and uses therefor” (The Regents of the University of California, priority 2011, dated 2021):

What was measured:
[1] = In vitro metabolism in hepatic microsomes (LC/MS); format: in vitro ADME, rat; conditions: for compound disappearance (loss) in hepatic microsomes: 30 min, 37° C.
Method: (§1) In Vitro Metabolism in Hepatic Microsomes—A compound of structure (I) was incubated for specified times at 37° C. with rat liver microsomes (e.g., 1 mg protein/ml; Sigma-Aldrich, St. Louis, Mo.) in potassium phosphate buffer (100 mM) containing NADPH (0 or 1 mM). The mixture was then chilled on ice, and 0.5 ml of ice-cold ethyl acetate was added. Samples were centrifuged for 15 min at 3,000 rpm, and the supernatant was evaporated to dryness under nitrogen. The residue was dissolved in 150 μl mobile phase (acetonitrile:water 3:1, containing 0.1% formic acid) for LC/MS analysis. Reverse-phase HPLC separations were carried out using a Waters C18 column (2.1×100 mm, […]) equipped with a solvent delivery system (Waters model 2690, Milford, Mass.). The solvent system consisted of a linear gradient from 5 to 95% acetonitrile run over 16 min (0.2 mL/min flow rate). Mass spectra were acquired on an Alliance HT 2790+ZQ mass spectrometer using negative ion detection.
as §1, with “Liquid Chromatography/Mass Spectrometry—Compounds (each at 5 μM) were” for “In Vitro Metabolism in Hepatic Microsomes—A compound of structure (I) was”, “(1” for “(e.g., 1”, “150” for “150 μl”, “detection, scanning from 150 to 1500 Da. The electrospray ion source parameters were as follows: capillary voltage 3.5 kV (positive ion mode), cone voltage 37 V, source temperature 120° C., desolvation temperature 250° C., cone gas flow 25 L/h, and dessolvation gas flow 350 L/h.” for “detection.”
PPQ-102 is a small-molecule inhibitor of CFTR chloride conductance with efficacy in preventing and reversing cyst formation in an organ culture model of PKD (see, e.g., Tradtrantip et al., J. Med. Chem. 2009, supra; Int'l Patent Appl. Publication No. WO 2011/019737). Preliminary analysis of the metabolic stability and aqueous solubility of PPQ-102, indicated poorer metabolic stability and lower water solubility (˜2 μM in albumin-free saline) than desired for optimal drugability. In vitro metabolic stability was determined by compound incubation with hepatic microsomes at 37° C. for specified times in the absence vs. presence of NADPH, following by LC/MS analysis. Shown in FIG. 6A is PPQ-102 disappearance in hepatic microsomes in the presence of NADPH, with ˜60% disappearance in 30 min.

[2] = Mouse pharmacokinetics and renal accumulation (LC/MS); format: in vivo
Method: Mouse Pharmacokinetics and Renal Accumulation—A compound of structure (I) was formulated at 1 mg/mL in 5% DMSO, 2.5% Tween-80 and 2.5% PEG400 in H2O, based on formulations used for compounds of similar polarity and chemical properties. Male mice in a CD1 genetic background (age 8-10 weeks, 25-35 g) were administered 300 μL of the BPO-27 formulation by intraperitoneal injection. At specified times kidneys were removed following renal arterial perfusion with PBS. Kidneys were weighed, mixed with acetic acid (100 μl per 1 g tissue) and ethyl acetate (10 mL per 1 g tissue), and homogenized. The homogenate was centrifuged at 3,000 rpm for 15 min. Calibration standards were prepared in kidney homogenates from control mice to which was added known amounts of BPO-27. The ethyl acetate-containing supernatant was dried under nitrogen and the residue was reconstituted in acetonitrile:H2O (3:1) containing 0.1% formic acid. For analysis of blood and urine, fluids were diluted with equal volume of water and extracted with ethyl acetate. LC/MS analysis was carried out as described herein.
PPQ-102 was undetectable in serum, kidney, and urine at 30-60 min after intravenous bolus administration of 300 μg PPQ-102 in mice using an LC/MS assay with sensitivity better than 100 nM. […] To improve on the drug-like properties of PPQ-102, a series of compound analogs were synthesized and tested.
BPO-27 pharmacokinetics in mice was measured following bolus intraperitoneal administration in an aqueous formulation in 5% DMSO, 2.5% Tween-80 and 2.5% PEG400 in water. BPO-27 was measured by LC/MS in kidney, blood and urine. […] The assay was linear with a detection sensitivity of better than 100 nM BPO-27. […] FIG. 11C summarizes the deduced BPO-27 concentrations in kidney, blood and urine over time. The t1/2 for disappearance of the original compound was approximately 2 h.

Structure (SMILES)	compound disappearance (loss) in hepatic microsomes ([1]; in the presence of NADPH)	metabolic stability in hepatic microsomes (in words) ([1]; in the presence of NADPH)	half-life ([2]; male, CD1, mouse, in vivo, ip, 300 μg, mice, bolus intraperitoneal administration, read-out: t1/2 for disappearance of the original compound (converted))	compound concentration in kidney, blood and urine ([2]; mice, for many hours following single intraperitoneal dose)	compound metabolized in hepatic microsomes ([1]; 4 h, in the presence of NADPH)	compound loss in hepatic microsomes ([1]; in the absence of NADPH)	compound in serum, kidney, and urine ([2]; 30-60 min after intravenous bolus of 300 μg in mice, LC/MS sensitivity better than 100 nM)
Cn1c(=O)c2c(-c3ccccc3)n3c(c2n(C)c1=O)C(c1ccc(Br)o1)Oc1ccc(C(=O)O)cc1-3 (racemic) [BPO-27, 6-(5-Bromofuran-2-yl)-7,9-dimethyl-8,10-dioxo-11-phenyl-7,8,9,10-tetrahydro-6H-benzo[b]pyrimido[4′,5′:3,4]pyrrolo[1,2-d][1,4]oxazine-2-carboxylic acid]	< 5%	excellent stability	~2 h	greater than 4 nM	–	–	–
Cc1ccc(C2Nc3ccccc3-n3c(-c4ccccc4)c4c(=O)n(C)c(=O)n(C)c4c32)o1 (centres unmarked) [PPQ-102, 7,9-Dimethyl-6-(5-methylfuran-2-yl)-11-phenyl-5,6-dihydropyrimido[4′,5′-3,4]pyrrolo[1,2-a]quinoxaline-8,10-(7H,9H)-dione, reference compound]	~60%	–	–	–	> 75%	No loss	undetectable
